Data as given in ChEMBL document CHEMBL1201862, “PubChem BioAssay data set” (2004).
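Each compound was tested at five concentrations against cells in 96-well plates for 48 hours. GI50 = concentration required for 50% inhibition of growth.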 Active and inactive are the calls of the source. No stated cut-off is given here; in the data, active = GI50 up to about 1.1 µM and inactive = higher.

Tests used:
Experiment in all cases: growth of human tumour cells (NCI), 48 h
[1] = test system: HT-29
[2] = test system: HCC 2998
[3] = test system: NCI/ADR-RES
[4] = test system: RXF 393
[5] = test system: Hs-578T
[6] = test system: SK-MEL-28
[7] = test system: CCRF-CEM
[8] = test system: SF-295
[9] = test system: A498
[10] = test system: MDA-MB-231
[11] = test system: U-251
[12] = test system: PC-3
[13] = test system: SF-268
[14] = test system: HCT-116
[15] = test system: SF-539
[16] = test system: NCI-H23
[17] = test system: ACHN
[18] = test system: HOP-62
[19] = test system: NCI-H226
[20] = test system: HCT-15
[21] = test system: LOX IMVI
[22] = test system: M14
[23] = test system: Malme-3M
[24] = test system: T47D
[25] = test system: IGROV-1
[26] = test system: 786-0
[27] = test system: A549
[28] = test system: RPMI-8226
[29] = test system: SK-OV-3
[30] = test system: SK-MEL-2
[31] = test system: OVCAR-5
[32] = test system: TK-10
[33] = test system: SNB-19
[34] = test system: NCI-H522
[35] = test system: EKVX
[36] = test system: UACC-62
[37] = test system: SNB-75
[38] = test system: SN12C
[39] = test system: SR
[40] = test system: OVCAR-3
[41] = test system: OVCAR-4
[42] = test system: KM12
[43] = test system: MDA-MB-435
[44] = test system: UACC-257
[45] = test system: SK-MEL-5
[46] = test system: SW-620
[47] = test system: UO-31
[48] = test system: HOP-92
[49] = test system: COLO 205
[50] = test system: BT-549
[51] = test system: HL-60
[52] = test system: MCF7
[53] = test system: DU-145
[54] = test system: CAKI-1
[55] = test system: NCI-H460
[56] = test system: K562
[57] = test system: MDA-N
[58] = test system: OVCAR-8
[59] = test system: MOLT-4

Compound: Cc1cc2nc(CC(C(F)(F)F)C(F)(F)F)oc2cc1C
- GI50 [1]: 973 nM (active)
- GI50 [2]: 3560 nM (inactive)
- GI50 [3]: 1710 nM (inactive)
- GI50 [4]: 2510 nM (inactive)
- GI50 [5]: 1830 nM (inactive)
- GI50 [6]: 3240 nM (inactive)
- GI50 [7]: 16 nM (active)
- GI50 [8]: 4760 nM (inactive)
- GI50 [9]: 5710 nM (inactive)
- GI50 [10]: 2450 nM (inactive)
- GI50 [11]: 3150 nM (inactive)
- GI50 [12]: 1960 nM (inactive)
- GI50 [13]: 2490 nM (inactive)
- GI50 [14]: 1000 nM (active)
- GI50 [15]: 2730 nM (inactive)
- GI50 [16]: 1370 nM (inactive)
- GI50 [17]: 7260 nM (inactive)
- GI50 [18]: 3480 nM (inactive)
- GI50 [19]: 1880 nM (inactive)
- GI50 [20]: 3470 nM
- GI50 [21]: 209 nM (active)
- GI50 [22]: 1070 nM (active)
- GI50 [23]: 3340 nM (inactive)
- GI50 [24]: 308 nM (active)
- GI50 [25]: 1970 nM (inactive)
- GI50 [26]: 474 nM (active)
- GI50 [27]: 5790 nM (inactive)
- GI50 [28]: 93.1 nM (active)
- GI50 [29]: 14100 nM (inactive)
- GI50 [30]: 2810 nM (inactive)
- GI50 [31]: 7410 nM (inactive)
- GI50 [32]: 5210 nM (inactive)
- GI50 [33]: 5090 nM (inactive)
- GI50 [34]: 184 nM (active)
- GI50 [35]: 2240 nM (inactive)
- GI50 [36]: 1420 nM (inactive)
- GI50 [37]: 1610 nM (inactive)
- GI50 [38]: 1030 nM (active)
- GI50 [39]: 27.6 nM (active)
- GI50 [40]: 2650 nM (inactive)
- GI50 [41]: 2190 nM (inactive)
- GI50 [42]: 3000 nM (inactive)
- GI50 [43]: 1960 nM (inactive)
- GI50 [44]: 4460 nM (inactive)
- GI50 [45]: 4320 nM (inactive)
- GI50 [46]: 608 nM (active)
- GI50 [47]: 7690 nM (inactive)
- GI50 [48]: 7500 nM (inactive)
- GI50 [49]: 1540 nM (inactive)
- GI50 [50]: 452 nM (active)
- GI50 [51]: 968 nM (active)
- GI50 [52]: 2540 nM (inactive)
- GI50 [53]: 4360 nM (inactive)
- GI50 [54]: 2070 nM (inactive)
- GI50 [55]: 3770 nM (inactive)
- GI50 [56]: 93.1 nM (active)
- GI50 [57]: 1910 nM (inactive)
- GI50 [58]: 1120 nM (active)

Compound: CC(C)C[C@H](NC(=O)[C@H](CCc1ccccc1)NC(=O)c1ccc2ccccc2n1)B(O)O
- GI50 [1]: < 11.3 nM (active)
- GI50 [2]: 29.2 nM (active)
- GI50 [3]: 706 nM (active)
- GI50 [4]: < 10 nM (active)
- GI50 [5]: 24.5 nM (active)
- GI50 [6]: < 10 nM (active)
- GI50 [7]: < 10 nM (active)
- GI50 [8]: 53 nM (active)
- GI50 [9]: 47.1 nM (active)
- GI50 [10]: 134 nM (active)
- GI50 [11]: 178 nM (active)
- GI50 [12]: 73.1 nM (active)
- GI50 [13]: 57.1 nM (active)
- GI50 [14]: < 12.2 nM (active)
- GI50 [15]: < 10 nM (active)
- GI50 [16]: 36.7 nM (active)
- GI50 [17]: < 10 nM (active)
- GI50 [18]: 176 nM (active)
- GI50 [19]: < 10 nM (active)
- GI50 [20]: 88.3 nM
- GI50 [21]: 14.4 nM (active)
- GI50 [22]: < 10.9 nM (active)
- GI50 [23]: < 10 nM (active)
- GI50 [24]: < 10 nM (active)
- GI50 [25]: 70.5 nM (active)
- GI50 [26]: < 22.5 nM (active)
- GI50 [27]: 233 nM (active)
- GI50 [28]: < 10 nM (active)
- GI50 [30]: < 10 nM (active)
- GI50 [31]: < 26.8 nM (active)
- GI50 [32]: < 10 nM (active)
- GI50 [34]: < 12.8 nM (active)
- GI50 [35]: 264 nM (active)
- GI50 [36]: 97.3 nM (active)
- GI50 [59]: < 10 nM (active)
- GI50 [37]: 30.2 nM (active)
- GI50 [38]: < 10 nM (active)
- GI50 [39]: < 15.8 nM (active)
- GI50 [40]: < 10 nM (active)
- GI50 [41]: 185 nM (active)
- GI50 [42]: 64.4 nM (active)
- GI50 [43]: < 10 nM (active)
- GI50 [44]: < 15.6 nM (active)
- GI50 [45]: < 13.6 nM (active)
- GI50 [46]: < 10 nM (active)
- GI50 [47]: 84.5 nM (active)
- GI50 [48]: 32.9 nM (active)
- GI50 [49]: 43 nM (active)
- GI50 [50]: < 10 nM (active)
- GI50 [51]: < 10 nM (active)
- GI50 [52]: < 10 nM (active)
- GI50 [53]: 75.2 nM (active)
- GI50 [54]: < 19.4 nM (active)
- GI50 [55]: 394 nM (active)
- GI50 [56]: 43.9 nM (active)
- GI50 [57]: < 10 nM (active)
- GI50 [58]: 163 nM (active)
